Results published in patent US11666636B2, “GLP-1R agonists and uses thereof” (priority 2017, dated 2023).

Tests used:
[1] = 6 days after infection; vs vehicle
[2] = system: serum inflammatory cytokines; conditions: rodent model; reported in literature; cited from earlier work
[3] = system: liver inflammation, aortic atherosclerosis; conditions: rodent model; reported in literature; cited from earlier work

Row | Compound | plasma glucose levels [1] | plasma insulin levels [1] | serum inflammatory cytokines during LPS-induced endotoxemia [2] | aortic atherosclerosis [3] | liver inflammation [3]
1 | CCCCCCCCCCCCCCCC(=O)N[C@@H](CCC(=O)NCCCC[C@H](NC(=O)[C@H](C)NC(=O)[C@H](C)NC(=O)[C@H](CCC(N)=O)NC(=O)CNC(=O)[C@H](CCC(=O)O)NC(=O)[C@H](CC(C)C)NC(=O)[C@H](Cc1ccc(O)cc1)NC(=O)[C@H](CO)NC(=O)[C@H](CO)NC(=O)[C@@H](NC(=O)[C@H](CC(=O)O)NC(=O)[C@H](CO)NC(=O)[C@@H](NC(=O)[C@H](Cc1ccccc1)NC(=O)[C@@H](NC(=O)CNC(=O)[C@H](CCC(=O)O)NC(=O)[C@H](C)NC(=O)[C@@H](N)Cc1cnc[nH]1)[C@@H](C)O)[C@@H](C)O)C(C)C)C(=O)N[C@@H](CCC(=O)O)C(=O)N[C@@H](Cc1ccccc1)C(=O)N[C@H](C(=O)N[C@@H](C)C(=O)N[C@@H](Cc1c[nH]c2ccccc12)C(=O)N[C@@H](CC(C)C)C(=O)N[C@H](C(=O)N[C@@H](CCCNC(=N)N)C(=O)NCC(=O)N[C@@H](CCCNC(=N)N)C(=O)NCC(=O)O)C(C)C)[C@@H](C)CC)C(=O)O [GLP-1R agonist, liraglutide] | no statistically significant changes | no statistically significant changes |  |  | 
2 | exendin-4 |  |  | reduced | reduced | reduced
